Data as given in patent US11541101B1, “LEMD3 antagonizes TGF-beta-driven Smad2/3 transcription in a stiffness-dependent fashion in both the nucleus and cytosol” (University of Virginia Patent Foundation, priority 2018, dated 2023).
Peptide text beside a SMILES is read from it. * marks the point of attachment. Cbz = O=C(OCc1ccccc1)*

How the values were obtained:
LEMD3 = assay: Recombinant LEMD3 fragment western blots (FLAG and V5 tags); format: cell-based, human; conditions: pFLAG-LEMD3-V5 transfected cells, inhibitor treatment, FIG. 4E
Excerpt: Western Blotting—For non-phosphoprotein western blots: cell lysates from tissue culture plastic or from 2 or 25 kPa, […] Petrisoft dishes (Matrigen, Brea, Calif.) were either: harvested directly in 4× protein loading buffer (Licor, Lincoln, Nebr.) supplemented with protease and phosphatase in-hibitors (#A32959, ThermoFisher, Waltham, Mass.) according to the manufacturer's instructions; or, processed with the NE-PER compartment isolation kit (ThermoFisher, Waltham, Mass.) according to the manufacturer's instructions. Lysates were treated with 0.3 μL of benzonuclease (ThermoFisher, Waltham, Mass.) for 15 minutes at room temperature with vigorous shaking. Samples were heated to 95 C for 5 minutes and run on a 4-12% Bis-Tris gel in 1×MES buffer and run for 70 minutes at 150V. The gel was then transferred to a nitro-cellulose membrane using the XCell Blot Module (ThermoFisher, Waltham, Mass.) at 25V for 65 min-utes. Membranes were air-dried for an hour, blocked with 5% non-fat milk in 1×PBS for an hour at room temperature, and then incubated with primary antibodies as described in Table 3 in 1×PBS-T with 1% milk for 16-24 hours at 4 C. Near-IR or HRP conjugated secondaries as described in Table 4 were then incubated with the blot and imaged subsequently on either an Odyssey CLx system for near-IR dyes (Licor, Lincoln, Nebr.) or a ChemiDoc MP system (Bio-Rad, Hercules, Calif.) with SuperSignal West Femto reagents (ThermoFisher, Waltham, Mass.) for HRP secondaries according to the manufacturer's instructions. Band analysis was performed using the associated Licor or Biorad software.
For recombinant LEMD3 western blots: Two samples of HFFs were prepared and electro-porated as above and plated onto each plastic or hydrogel surface for 12 hours (protease inhibitor experiments) or 24 hours (LEMD3 fragment abundance and deletion mutant experiments) before harvesting. qPCR—RNA was isolated from cultured cells using RNEasy Plus Mini kits (Qiagen, Hilden, Germany) according to the manufacturer's instructions. cDNA libraries were constructed using RT2 First Strand kit (Qiagen, Hilden, Germany) according to the manufacturer's instruction. 25 μL qPCR reactions were prepared using SYBR Green Master Mix (ThermoFisher, Waltham, Mass.) with 250 nM primers, listed in Table 3 and 10 ng input cDNA. Reactions were carried out on a StepOnePlus (ThermoFisher, Waltham, Mass.) for 40 cycles. Melt curves were visually inspected after each run to confirm a single, defined peak in the derivated intensity plot. Data from each run was imported into LinRegPCR, which performed baseline correction and measured PCR efficiency by amplicon group as described in (81). The relative number of transcripts was calculated by dividing the Cq threshold by the PCR efficiency for the reaction raised to the power of Cq, the cycle number at which the threshold is reached for a given target. For relative quantification be-tween conditions, LEMD3 transcripts were either: normalized for each condition to the mean of two reference genes, 18S and ACTB, if the samples were all from a single stiffness condition; or, normalized to 18S alone if substrate stiffness was an experimental condition.

[1] = pulmonary fibrosis; cited from earlier work
Smad-driven luciferase = Smad-driven luciferase assay on substrates of varying stiffness; format: cell-based, human
Protocol: Smad-Driven Luciferase Assays—HFFs were transfected with Cignal Lenti Reporter virus (Qiagen, Hilden, Germany) with a MOI of 40 and subsequently selected using 400 ng/mL puromycin until untransduced HFFs died. Stably transfected HFFs, with or without additional LEMD3-focused genetic treatments as described above, were plated at 10,000 cells/well on a HTS plate (Matrigen, Brea, Calif.) containing glass surfaces and polyacrylamide gels, which ranged in stiffness from 0.2 kPa to 50 kPa, all functionalized with 10 μg/mL plasma-purified human fibronectin according to the manufacturer's instruction. Cells adhered to the surfaces for 4 hours in serum-free DMEM supplemented with 1% BSA and 1% penicillin/streptomycin. Media was then supplemented with the desired amounts of TGFβ and, when applicable, with cytoskeletal agents as described in the results. HFFs were then incubated for 16 hours at 37 C before the luciferase re-action. Wells were supplemented to 2 mM VivoGlo d-luciferin (Promega, Madison, Wis.) using a plate reader controlled auto-injector system and light production was subsequently quantified every 5 minutes for 30 minutes on a Synergy H4 plate reader (BioTek, Winooski, Vt.). The raw luciferase signal was the median intensity measured over this timecourse minus the intensity from luciferase-transfected cells not treated with TGFβ to account for any TGFβ elaborated and activated by the cells in situ. Cells were then fixed with 4% paraformaldehyde, permeabilized with 0.1% Triton X-100, and then stained with 1:10,000 Hoechst 33342 in 1×PBS for 30 minutes at room temperature (ThermoFisher, Waltham, Mass.). The raw luciferase signal was then normalized to the nuclear signal, which was inside a linear standard curve form cells plated on glass and on polyacrylamide within each plate. Data for each condition was then fit to a three-parameter logistic equation using a least-squares minimization fit in Prism (Graph-Pad, La Jolla, Calif.). […] Otherwise, the trends across the maximal luciferase signal (“Top” variable from the model) or the mid-transition point observed between “Bottom” and “Top” signals (“EC50” variable from the model, called “transition point” in text), were statistically compared using an ANOVA with “Test for Trends,” which restricts the hypothesis testing to a particular order of the data-sets (e.g. max luciferase signal as a function of increasing TGFβ dose or transition point as a function of increased LEMD3 expression). Each data point represents at least three biological replicates.

LEMD3-Smad2/3 complexes = assay: LEMD3-Smad2/3 proximity ligation assay (PLA); format: cell-based, human
Protocol: In vitro PLA: Protein-protein PLA was per-formed with antibody pairs listed in Table 4 as described in (42) with the following modifications: cells were plated on FN-coated glass or hydrogels (Matrigen, Brea, Calif.). All primary antibody in-cubations were performed for 16-24 hours at 4 C and cells were counter-stained with 1:40 phalloidin-488 or phalloidin-546 in 1×PBS for 30 minutes at room temperature and/or further processed for IF imaging using the procedure recommended in Sigma's PLA Resource Center. For all recombinant LEMD3 and C-terminal fragment experiments, HFFs were electroporated as above and allowed to culture for 24 hours on 10 μg/mL fibronectin coated glass or hydrogels before fixation. For LEMD3-phospho-Smad2/3, LEMD3-Smad2/3+TGFβ and for Smad2/3-Smad4 PLA assays: cells were treated 90 minutes before fixation with 50 μg/mL for LEMD3- and CTF-Smad2/3 assays, 100 μg/mL TGFβ for LEMD3-phospho-Smad2/3 experiments and 500 μg/mL TGFβ for Smad2/3-Smad4 experiments. For FLAG post-staining of PLA processed tissues, cells were blocked with unlabelled AffiniPure donkey anti-rabbit antibodies (Jackson ImmunoResearch, West Grove, Pa.) at a 1:10 dilution in 1×PBS-T at room temperature for 1 hour before further IF processing with 1:1000 rabbit anti-FLAG (#F7425, Sigma-Aldrich, Darmstadt, Germany) for 1 hour in PBS-T at room temperature. Following three washes with PBS-T for 5 minutes, each sample was stained with 1:500 goat anti-rabbit 546 in PBS-T for 1 hour at room temperature, washed again and then counter-stained as above. For V5 post-staining of PLA processed samples, cells were incubated with 1:200 647 labelled anti-V5 antibody (R&D Systems, Minneapolis, Minn.) diluted in PBS-T at room tem-perature for 1 hour before washing three times in PBS-T for 5 minutes each and then counter-stained as above. Imaging and analysis were performed as described for high-resolution ex vivo PLA signals except that no tissue autofluorescence signal was measured or needed to be subtracted and, when appro-priate, other IF signal (e.g. FLAG) were measured in parallel. For cells on Matrigen HTS plates (FIGS. 2c & 2d), the confluence of cells prevented identifying individual cell boundaries. Instead the PLA signal was quantified as the PLA volume divided by the nuclear intensity for each image. Each data point represents at least 3 unique surfaces with at least 12 cells measured per surface. For Smad2/3-Smad4 experiments, only two independent hydrogels were analyzed for the “CTF 500 μg/mL” and “Neon 500 μg/mL” groups due to loss of hydrogels during processing. Each bar in FIG. 5D represents the mean with standard error of the mean for all the cells analyzed from that condition.

Smad3 phosphorylation = assay: phospho-Smad3 to total Smad3 ratio by western blot; format: cell-based, human; conditions: 100 μg/mL for 90 minutes, relative to untreated HFFs, p=0.0506
[2] = tested on: LEMD3-phospho-Smad2/3 interactions; assay: LEMD3-phospho-Smad2/3 PLA; format: cell-based, human; conditions: 100 μg/mL, HFFs on glass, vs untreated fibroblasts, p=0.0333
Protocol: (§1) In vitro PLA: Protein-protein PLA was per-formed with antibody pairs listed in Table 4 as described in (42) with the following modifications: cells were plated on FN-coated glass or hydrogels (Matrigen, Brea, Calif.). All primary antibody in-cubations were performed for 16-24 hours at 4 C and cells were counter-stained with 1:40 phalloidin-488 or phalloidin-546 in 1×PBS for 30 minutes at room temperature and/or further processed for IF imaging using the procedure recommended in Sigma's PLA Resource Center. […] Imaging and analysis were performed as described for high-resolution ex vivo PLA signals except that no tissue autofluorescence signal was measured or needed to be subtracted and, when appro-priate, other IF signal (e.g. FLAG) were measured in parallel. […] Instead the PLA signal was quantified as the PLA volume divided by the nuclear intensity for each image. Each data point represents at least 3 unique surfaces with at least 12 cells measured per surface. For Smad2/3-Smad4 experiments, only two independent hydrogels were analyzed for the “CTF 500 μg/mL” and “Neon 500 μg/mL” groups due to loss of hydrogels during processing. Each bar in FIG. 5D represents the mean with standard error of the mean for all the cells analyzed from that condition.

Smad2/3 = assay: V5-Smad2/3 PLA with recombinant LEMD3 / CTF; format: cell-based, human; conditions: 50 μg/mL, 1 kPa or 25 kPa substrates, p=0.98 and p=0.99
Protocol: as §1

Smad2/3-Smad4 complexes = assay: Smad2/3-Smad4 PLA; format: cell-based, human; conditions: 500 μg/mL, HFFs on 1 kPa hydrogels, relative to untreated HFFs, p=0.001
Protocol: as §1

[3] = 10 μM, relative to HFFs treated with TGFβ alone, FIG. 1D

## O=c1oc(Cl)c(Cl)c2ccccc12 [DCI, 3,4 dichloroisocoumarin]
LEMD3
  60 kDa FLAG fragment relative to full length: reduced

## CCOC(=O)[C@H]1O[C@@H]1C(=O)N[C@@H](CC(C)C)C(=O)NCCC(C)C [E64d, E-64D]
LEMD3
  85 kDa V5 fragment abundance: potentiated

## CC(C)C[C@@H](C=O)NC(=O)[C@H](CC(C)C)NC(=O)[C@H](CC(C)C)NC(=O)OCc1ccccc1 [MG-132] (Cbz-Leu-Leu-Leu-aldehyde)
LEMD3
  60 kDa FLAG fragment relative to full length: also reduced

## CNC(=O)C(CCc1ccccc1)NC(=O)C(CC(=O)NO)CC(C)C (stereo not drawn) [MMPi]
LEMD3
  85 kDa V5 fragment abundance: potentiated

## Cc1ccc(=O)n(-c2ccccc2)c1 [Pirfenidone]
[1]
  disease progression: slowing of disease progression

## Cc1ccc2c(c1)C(=O)C1(O)CCN(c3ccccc3)C1=N2 (stereo not drawn) [blebbistatin, Blebbistatin]
Smad-driven luciferase; [3]
  maximal luminescence: nor increase the maximal luminescence
  transition point: did not significantly shift

## C=C1[C@@H](C)[C@H]2[C@H](Cc3ccccc3)NC(=O)[C@]23[C@H](OC(C)=O)/C=C/[C@@](C)(O)C(=O)[C@@H](C)C/C=C/[C@H]3[C@@H]1O [cytochalasin D, Cytochalasin D]
Smad-driven luciferase; 2 μM, FIG. 1D, data did not converge to a sigmoidal model
  luminescent profile over increasing ECM stiffness: low, flat luminescent profile
LEMD3-Smad2/3 complexes; 2 μM for 90 minutes, fibroblasts on glass, p=0.0089
  total frequency of LEMD3-Smad2/3 complexes: increase
LEMD3-Smad2/3 complexes; 2 μM for 90 minutes, glass, p=0.0871
  frequency of LEMD3-Smad2/3 complexes, cytosolic compartment: also increased
LEMD3-Smad2/3 complexes; 2 μM for 90 minutes, glass, p=0.5657
  frequency of LEMD3-Smad2/3 complexes, nuclear compartment: also increased

## C/C1=C\[C@H](C)C[C@H](C)OC(=O)C[C@H](c2ccc(O)cc2)NC(=O)[C@@H](Cc2c(Br)[nH]c3ccccc23)N(C)C(=O)[C@H](C)NC(=O)[C@@H](C)C1 [jasplakinolide, Jasplakinolide]
LEMD3-Smad2/3 complexes; 100 nM and 200 nM for 2 hours, 1 kPa hydrogels, vs DMSO p<0.0001
  LEMD3-Smad2/3 interactions, total: dose-dependent decrease
LEMD3-Smad2/3 complexes; 100 nM and 200 nM, 1 kPa hydrogels, vs DMSO p<0.0001
  LEMD3-Smad2/3 complex formation, cytoplasm: Significant reductions
LEMD3-Smad2/3 complexes; 100 nM p=0.0466, 200 nM p=0.002 vs DMSO, 1 kPa hydrogels
  LEMD3-Smad2/3 complex formation, nucleus: Significant reductions

## CC[C@H](CO)Nc1nc(NCc2ccccc2)c2ncn(C(C)C)c2n1 [roscovitine]
LEMD3
  46 kDa V5 fragment abundance: significantly increasing
  60 kDa FLAG fragment relative to full length: significantly reducing

## TGFβ: Recombinant human TGF-β, R&D Systems 240-B
Smad-driven luciferase; HFFs on stiff substrates, p<0.0001, FIG. 1B
  TGFβ dose-response of luminescence: increasing luminescence with increasing TGFβ dose
Smad-driven luciferase; HFFs, p=0.07, FIG. 1B
  shift of the sigmoid transition point with increasing pg/mL doses: shift the transition point of the sigmoid towards softer substrates
Smad-driven luciferase; pg/mL dose-range of TGFβ
  stiffness at which transition points occurred: 1-4 kPa
Smad3 phosphorylation
  ratio of phospho-Smad3 to total Smad3: increased the ratio of phospho-Smad3 to total Smad3
LEMD3-Smad2/3 complexes; 50 μg/mL, 1 kPa and 25 kPa hydrogels
  LEMD3-Smad2/3 interactions with TGFβ dosing: unperturbed by TGFβ dosing
[2]
  LEMD3-phospho-Smad2/3 interactions: significantly higher
Smad2/3
  CTF-Smad2/3 interaction frequency with TGFβ dosing: did not significantly vary
Smad2/3-Smad4 complexes
  Smad2/3-Smad4 complexes: increase
